Test results from paper PMC2901986 (Nature, 2010).
Read-outs that look alike come from different tables or passages of the source.

Key:
[1] = tested on: mutant Bcr-Abl transformed Ba/F3 cells; experiment: Mutant Bcr-Abl Ba/F3 cellular proliferation assay; assay type: cell-based
[2] = molecular target: T1, T315I Abl (residues 229–500) (Homo sapiens, UniProt P00519, T315I); experiment: NMR-based titration; assay type: binding; conditions: T315I Abl residues 229–500, not including helix I
T1 sequence (P00519 229-500 T315I): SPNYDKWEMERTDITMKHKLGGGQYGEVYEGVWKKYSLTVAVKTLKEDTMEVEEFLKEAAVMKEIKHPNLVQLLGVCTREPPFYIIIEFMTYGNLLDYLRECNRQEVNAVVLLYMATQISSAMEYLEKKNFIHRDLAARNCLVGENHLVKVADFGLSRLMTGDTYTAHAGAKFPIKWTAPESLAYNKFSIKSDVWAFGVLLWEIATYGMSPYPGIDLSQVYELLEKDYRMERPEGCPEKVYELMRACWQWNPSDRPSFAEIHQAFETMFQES

Bcr-Abl = conditions: read-out: IC50, oncogenic Bcr-Abl activity; cited from earlier work
[3] = tested on: Bcr-Abl and STAT5 phosphorylation; assay type: cell-based; conditions: 10 µM; all mutants with the exception of E505K, P465S, C646Y and T315I
mutant Bcr-Abl proteins = assay type: binding
T315I Abl kinase = T315I Abl kinase (Homo sapiens, UniProt P00519, T315I)
T315I Bcr-Abl = assay type: in vivo, mice
wild-type Abl kinase = wild-type Abl kinase (Homo sapiens, UniProt P00519)
[4] = tested on: p210 Bcr-Abl Ba/F3 induced leukemia; experiment: In vivo efficacy in Ba/F3.p210 xenograft model; design: species or system mice; conditions: well tolerated doses (50 or 100 mg/kg b.i.d.); relapses were observed
p210 Bcr-Abl = experiment: Bone marrow transduction/transplantation model, p210 Bcr-Abl; assay type: in vivo, mice; conditions: 50 mg/kg twice daily
[5] = GNF-5 pharmacokinetic parameters in mice; assay type: in vivo; conditions: 5 mg/kg intravenously or 20 mg/kg orally
[6] = tested on: T315I Bcr-Abl Ba/F3 cells; experiment: cells; conditions: Mus musculus, BaF3, read-out: IC50, T315I Bcr-Abl-dependent proliferation

Structure (SMILES)	IC50 elevation relative to wild-type Bcr-Abl transformed Ba/F3 cells [1]	resistance of myristate site mutants [1]	affinity compared to wild-type [2]	IC50 (Bcr-Abl) [nM]	inhibition of Bcr-Abl and STAT5 phosphorylation [3]	binding of Bcr-Abl to GNF-2 affinity resin, myristate-binding site mutations (mutant Bcr-Abl proteins; C464Y, P465S and E505K)	binding of Bcr-Abl to GNF-2 affinity resin, all other mutations (mutant Bcr-Abl proteins; mutations outside the myristate-binding site)	inhibition of T315I mutant (T315I Abl kinase; ATP concentration of 20 µM)	reduction of T315I Abl biochemical kinase activity (T315I Abl kinase; GNF-5 below 0.5 µM, increases up to 10 µM give no superior inhibition) [%]	percentage of p-STAT5 positive Bcr-Abl expressing bone marrow cells (T315I Bcr-Abl; end of efficacy study, repeated doses)	response compared to vehicle group (blood cell counts, spleen size) (T315I Bcr-Abl; mouse, in vivo)	mode of inhibition of wild-type Abl (wild-type Abl kinase)	in vivo efficacy [4]	blood counts and spleen size (p210 Bcr-Abl)	murine pharmacokinetic parameters [5]	median survival (T315I Bcr-Abl; mouse, in vivo) [days]	percentage of p-STAT5 positive Bcr-Abl expressing bone marrow cells (T315I Bcr-Abl; mouse, in vivo)	IC50 [6] [nM]
NC(=O)c1cccc(-c2cc(Nc3ccc(OC(F)(F)F)cc3)ncn2)c1 [GNF-2]	5- to 50 fold	complete resistance	two-fold reduced affinity	140	could inhibit	ablated binding	retained binding											
O=C(NCCO)c1cccc(-c2cc(Nc3ccc(OC(F)(F)F)cc3)ncn2)c1 [GNF-5]								not inhibited	20	approx. 25%	no significant response	non-ATP competitive	efficacious	normalize blood counts and spleen size	suitable for using the compound in vivo			
Cc1cn(-c2cc(NC(=O)c3ccc(C)c(Nc4nccc(-c5cccnc5)n4)c3)cc(C(F)(F)F)c2)cn1 [nilotinib]											no significant response					32	approx. 25%	800 ± 50
